The text below walks through data of ChEMBL document CHEMBL3822439, “Discovery of a novel 6,7-disubstituted-4-(2-fluorophenoxy)quinolines bearing 1,2,3-triazole-4-carboxamide moiety as potent c-Met kinase inhibitors” (Eur J Med Chem, 2016).

A word on the IC50: it is the concentration that gives 50% inhibition. A low value points to inhibition by little substance.

One assay relates to HT-29. The assay is described as follows: Cytotoxicity against human HT-29 cells measured after 72 hrs by MTT assay. The note with it: HT-29, 72 h.
Another assay deals with A549. In words: Cytotoxicity against human A549 cells measured after 72 hrs by MTT assay. Type of assay: functional, cell-based. Conditions: A549, 72 h. (Tetrazolium assays rely on reduction of a dye to a coloured formazan, in cell work by metabolically active cells.)
A short description of assay [1]: Cytotoxicity against human MKN45 cells measured after 72 hrs by MTT assay. The note with it: MKN-45, 72 h. Type of assay: functional, cell-based.
Assay [2] in a line: Cytotoxicity against human H460 cells measured after 72 hrs by MTT assay. The note with it: NCI-H460, 72 h.

With `COc1cc2c(Oc3ccc(NC(=O)c4cn(-c5ccccc5)nn4)cc3F)ccnc2cc1OCCCN1CCCCC1`, the IC50 turned out to be 180 nM in the assay with HT-29, 130 nM with A549, 100 nM in assay [1] and 210 nM in assay [2].
On to `COc1cc2c(Oc3ccc(NC(=O)c4cn(-c5ccccc5Cl)nn4)cc3F)ccnc2cc1OCCCN1CCC(C)CC1`, for which the IC50 with HT-29 came out at 130 nM; with A549 it was 370 nM; in assay [1], 240 nM; in assay [2] it was 230 nM.
For `COc1cc2c(Oc3ccc(NC(=O)c4cn(-c5ccc(F)c(F)c5)nn4)cc3F)ccnc2cc1OCCCN1CCCCC1`, in that order: 210 nM, 220 nM, 310 nM and 250 nM.
As to `COc1cc2c(Oc3ccc(NC(=O)c4cn(-c5ccc(Br)cc5)nn4)cc3F)ccnc2cc1OCCCN1CCOCC1`, the IC50 with HT-29 came to 260 nM; with A549 it was 180 nM; in assay [1] it was 90 nM; in assay [2], 130 nM.
`COc1cc2c(Oc3ccc(NC(=O)c4cn(-c5c(Cl)cccc5Cl)nn4)cc3F)ccnc2cc1OCCCN1CCC(C)CC1`: the IC50 in the assay on HT-29 was determined as 1390 nM; in the assay on A549 it was 320 nM; in assay [1], 120 nM; in assay [2] it was 270 nM.
As to `COc1cc2c(Oc3ccc(NC(=O)c4cn(-c5ccccc5)nn4)cc3F)ccnc2cc1OCCCN1CCOCC1`, the IC50 in the assay with HT-29 was found to be 350 nM; in the assay with A549, 720 nM; in assay [1], 110 nM; in assay [2], 450 nM.
Turning to `COc1cc2c(Oc3ccc(NC(=O)c4cn(-c5c(Cl)cccc5Cl)nn4)cc3F)ccnc2cc1OCCCN1CCCCC1`, the IC50 with HT-29 came to 240 nM; in the assay with A549 it was 150 nM; in assay [2], 280 nM.
Consider `COc1cc2c(Oc3ccc(NC(=O)c4cn(-c5ccccc5)nn4)cc3F)ccnc2cc1OCCCN1CCCC1`, for which the IC50 worked out at 180 nM with HT-29, 360 nM in the assay with A549, 260 nM in assay [1] and 280 nM in assay [2].
For the molecule `COc1cc2c(Oc3ccc(NC(=O)c4cn(-c5ccccc5F)nn4)cc3F)ccnc2cc1OCCCN1CCCCC1`, the IC50 turned out to be 290 nM in the assay on HT-29, 2770 nM with A549, 1290 nM in assay [1] and 210 nM in assay [2].
For `COc1cc2c(Oc3ccc(NC(=O)c4cn(-c5ccccc5)nn4)cc3F)ccnc2cc1OCCCN1CCN(C)CC1`, in that order: 180 nM, 160 nM, 60 nM and 200 nM.
Take `COc1cc2c(Oc3ccc(NC(=O)c4cn(-c5ccccc5C)nn4)cc3F)ccnc2cc1OCCCN1CCCCC1`: the IC50 in the assay with HT-29 came to 1340 nM; in the assay with A549, 3230 nM; in assay [1] it was 3250 nM; in assay [2] it was 2100 nM.
Take `COc1cc2c(Oc3ccc(NC(=O)c4cn(-c5ccccc5F)nn4)cc3F)ccnc2cc1OCCCN1CCC(C)CC1`: the IC50 in the assay on HT-29 turned out to be 210 nM; in the assay with A549, 250 nM; in assay [1] it was 130 nM; in assay [2], 190 nM.
As for `COc1cc2c(Oc3ccc(NC(=O)c4cn(-c5ccccc5C)nn4)cc3F)ccnc2cc1OCCCN1CCC(C)CC1`, the IC50 with HT-29 was 2380 nM; in the assay on A549 it was 3500 nM; in assay [2], 2730 nM.
As to `COc1cc2c(Oc3ccc(NC(=O)c4cn(-c5ccccc5Cl)nn4)cc3F)ccnc2cc1OCCCN1CCCC1`, the IC50 in the assay with HT-29 was determined as 150 nM; in the assay with A549, 330 nM; in assay [1], 70 nM; in assay [2], 190 nM.
The corresponding values for `COc1cc2c(Oc3ccc(NC(=O)c4cn(-c5ccccc5F)nn4)cc3F)ccnc2cc1OCCCN1CCN(C)CC1` are 300 nM, 250 nM, 140 nM and 230 nM.
Consider `COc1cc2c(Oc3ccc(NC(=O)c4cn(-c5c(C)cccc5C)nn4)cc3F)ccnc2cc1OCCCN1CCN(C)CC1`, for which the IC50 was 2170 nM in the assay with HT-29, 2180 nM with A549 and 4540 nM in assay [2].
`COc1cc2c(Oc3ccc(NC(=O)c4cn(-c5c(C)cccc5C)nn4)cc3F)ccnc2cc1OCCCN1CCOCC1`: the values for the IC50 (with HT-29; in assay [2]) were 6140 nM and 4320 nM, respectively.
For the molecule `COc1cc2c(Oc3ccc(NC(=O)c4cn(-c5ccccc5Cl)nn4)cc3F)ccnc2cc1OCCCN1CCN(C)CC1`, the IC50 in the assay with HT-29 worked out at 160 nM; with A549 it was 150 nM; in assay [1], 70 nM; in assay [2] it was 290 nM.
For `COc1cc2c(Oc3ccc(NC(=O)c4cn(-c5ccc(F)c(F)c5)nn4)cc3F)ccnc2cc1OCCCN1CCC(C)CC1`, the IC50 in the assay with HT-29 is 810 nM; with A549, 1460 nM; in assay [1] it was 1290 nM; in assay [2], 260 nM.
For the molecule `COc1cc2c(Oc3ccc(NC(=O)c4cn(-c5c(C)cccc5C)nn4)cc3F)ccnc2cc1OCCCN1CCCCC1`, the IC50 in the assay with HT-29 came to 3690 nM; in assay [1] it was 2140 nM; in assay [2], 3520 nM.
Take `COc1cc2c(Oc3ccc(NC(=O)c4cn(-c5ccc(F)c(F)c5)nn4)cc3F)ccnc2cc1OCCCN1CCN(C)CC1`: the IC50 in the assay on HT-29 was found to be 430 nM; in the assay with A549, 200 nM; in assay [1] it was 160 nM; in assay [2] it was 250 nM.
For `COc1cc2c(Oc3ccc(NC(=O)c4cn(-c5c(C)cccc5C)nn4)cc3F)ccnc2cc1OCCCN1CCC(C)CC1`, in that order: 2450 nM, 3340 nM, 4310 nM and 2360 nM.
The corresponding values for `COc1cc2c(Oc3ccc(NC(=O)c4cn(-c5ccc(Br)cc5)nn4)cc3F)ccnc2cc1OCCCN1CCCC1` are 190 nM, 370 nM, 120 nM and 200 nM.
As to `COc1cc2c(Oc3ccc(NC(=O)c4cn(-c5ccccc5C)nn4)cc3F)ccnc2cc1OCCCN1CCCC1`, the IC50 in the assay on HT-29 is 1200 nM; in the assay with A549, 900 nM; in assay [2], 1260 nM.
Consider `COc1cc2c(Oc3ccc(NC(=O)c4cn(-c5ccccc5)nn4)cc3F)ccnc2cc1OCCCN1CCC(C)CC1`, for which the IC50 with HT-29 worked out at 190 nM; in the assay on A549, 140 nM; in assay [1] it was 90 nM; in assay [2], 210 nM.
The corresponding values for `COc1cc2c(Oc3ccc(NC(=O)c4cn(-c5ccc(Br)cc5)nn4)cc3F)ccnc2cc1OCCCN1CCCCC1` are 260 nM, 230 nM, 150 nM and 360 nM.
Consider `COc1cc2c(Oc3ccc(NC(=O)c4cn(-c5ccccc5C)nn4)cc3F)ccnc2cc1OCCCN1CCN(C)CC1`, for which the IC50 was 1430 nM with HT-29, 3100 nM with A549 and 3650 nM in assay [2].
Take `COc1cc2c(Oc3ccc(NC(=O)c4cn(-c5c(C)cccc5C)nn4)cc3F)ccnc2cc1OCCCN1CCCC1`: the IC50 in the assay on HT-29 worked out at 2240 nM; in the assay on A549, 1240 nM; in assay [1], 3490 nM; in assay [2], 1560 nM.
For the molecule `COc1cc2c(Oc3ccc(NC(=O)c4cn(-c5c(Cl)cccc5Cl)nn4)cc3F)ccnc2cc1OCCCN1CCOCC1`, the values for the IC50 (in the assay with HT-29; in assay [1]; in assay [2]) were 270 nM, 110 nM and 290 nM, respectively.
On to `COc1cc2c(Oc3ccc(NC(=O)c4cn(-c5ccccc5Cl)nn4)cc3F)ccnc2cc1OCCCN1CCOCC1`, for which the IC50 in the assay with HT-29 was 240 nM; in the assay with A549 it was 530 nM; in assay [1] it was 270 nM; in assay [2], 210 nM.
